Reference: patent US5310728A, “Method for treating corneal endothelial wounds” (Chiron Ophthalmics, Inc., priority 1992, dated 1994)
“Also recorded” adds a separate entry of the source.

What was measured:
[1] = test system: bovine corneal endothelial cells (BCEC); experiment: Stimulation of BCEC DNA synthesis by recombinant peptide growth factors (tritiated thymidine); assay type: cell-based; settings: for Stimulation of DNA synthesis of BCEC (in words): serum-free CDM, FIG. 5; for Relative potency as mitogen for BCEC (in words): absence of other added serum components, ten peptide growth factors compared, EGF first, TGF-α second
Experimental: Pure cultures of BCEC were established from freshly obtained cow eyes by trypsin treatment of the endothelial surface. Early passage cultures were trypsinized and seeded into 24 well plates as described above. After the cells had been synchronized by serum deprivation, BCEC were cultured in CDM containing tritiated thymidine and solutions of peptide growth factors produced by recombinant DNA technology. Radioactivity incorporated into DNA was measured as described previously.

fibroblasts = settings: in vitro; Haigler & Carpenter 1980; cited from earlier work
[2] = test system: endothelial cell division; experiment: Intraocular injection of TGF-α solution in a patient with endothelium failure; assay type: in vivo; settings: 100 μg/ml in buffered saline, 0.1 ml per injection into the anterior chamber, single or series
Experimental: A patient is diagnosed as requiring a corneal implant due to endothelium failure as a result of such conditions as Fuch's dystrophy or a marginal endothelial count either prior to or after cataract surgery. As an alternative to transplant surgery, the patient undergoes a single or series of intraocular injections of a solution of TGF-α in buffered saline. The concentration of the TFG-α is 100 μg/ml and 0.1 ml of solution are injected into the anterior chamber per injection.

Substance: platelet-derived growth factor
- Stimulation of DNA synthesis of BCEC (in words) [1]: failed to stimulate DNA synthesis

Substance: multiplication stimulating activity
- Stimulation of DNA synthesis of BCEC (in words) [1]: failed to stimulate DNA synthesis

Substance: epidermal growth factor [EGF]
- Relative potency as mitogen for BCEC (in words) [1]: second only to EGF in potency
- Minimum exposure time to induce fibroblasts to divide (fibroblasts): ≥ 6 h

Substance: transforming growth factor alpha [TGF-α]
- Relative potency as mitogen for BCEC (in words) [1]: very potent mitogen for BCEC; also recorded: potent mitogen
- Effect of injections on endothelial cell division [2]: enhance endothelial cell division

Substance: nerve growth factor
- Stimulation of DNA synthesis of BCEC (in words) [1]: failed to stimulate DNA synthesis
